Data published in US11452710B1, “Micronutrient and plant extract composition and method of improving bone health” (priority 2022, dated 2022).

Test system: alkaline phosphatase (ALP)
Conditions: 0.1-5 μg/ml, 48 h at 37° C., n=4; compared to the control and to the most stimulating agents (boron line 10, MSM line 15)
Protocol: In vitro differentiation (alkaline phosphatase activity (ALP) and core-binding factor alpha 1 (Cbfa-1) as a marker) assay: Human osteoblasts (1×10^5 cells/well of a 96-well plate) in a 100 μl cell culture medium were exposed to select micronutrients and plant extracts (0.1-5 μg/ml) for 48 h at 37° C., and lysed with assay buffer. Subsequently, 5 mM p-nitrophenyl phosphate (pNPP), as a phosphate substrate for alkaline phosphates, was added into all experimental wells for 1 h, followed by a stop solution. The absorbance was measured at 450 nm within 5 min. using a microplate reader.

| Molecule | alkaline phosphatase (ALP) activity level in human osteoblasts |
| --- | --- |
| CS(C)(=O)=O [MSM, methylsulfonylmethane] | most stimulating agents |
| boron | most stimulating agents |
